Assay results published in paper PMC8695447, “Novel Small Molecules Capable of Blocking mtRAS-Signaling Pathway” (Frontiers in Oncology, 2021).

What was measured:
H358 (KRAS-G12C) = assay: Anti-proliferation assay on H358; type: cell-based; settings: 72 h treatment, average with SD (n = 3, duplicate)
Experimental: (§1) Ba/F3-parental, OCI-AML3, U397 cells were purchased from DSMZ. MDA-MB-231, HCT-116, AsPC-1, H358, HT-29, SW480, and DU-145 cells were obtained from KCLB. MDA-MB-468 cells were obtained from ATCC. All cells were maintained in RPMI with 10% FBS and antibiotics. Cells were grown in a humidified 5% CO2 incubator at 37°C. Ba/F3-parental cells were grown in the presence of 10 ng/ml IL-3. NRAS-G12D or NRAS-G12V transformed Ba/F3 cell lines (Ba/F3-NRAS-G12D, and Ba/F3-NRAS-G12V, respectively) were cultured without IL-3, which were established by the procedure described as previously ([30]).
(§2) Approximately 3.0 × 10^3 cells/well were seeded in a 96-well cell culture plate. After stabilization, 1/3 serially diluted compound in DMSO was treated to the cell. […] All GI50 values were obtained in duplicate with three independent assays and averages with standard deviation are presented.

Ba/F3-NRAS-G12V cells = assay: Anti-proliferation assay (CellTiter Glo) on Ba/F3-NRAS-G12V; type: cell-based; settings: 72 h treatment, average with SD (n = 3, duplicate)
Experimental: as §1, §2

MDA-MB-231 (KRAS-G13D) = assay: Anti-proliferation assay on MDA-MB-231; type: cell-based; settings: 72 h treatment, average with SD (n = 3, duplicate)
Experimental: as §1, §2

U937 (KRAS, NRAS-wt) = assay: Anti-proliferation assay on U937; type: cell-based; settings: 72 h treatment, average with SD (n = 3, duplicate)
Experimental: as §1, §2

OCI-AML3 (NRAS-Q61L) = assay: Anti-proliferation assay on OCI-AML3; type: cell-based, human; settings: 72 h treatment, average with SD (n = 3, duplicate)
Experimental: as §1, §2

Ba/F3-parental cells = assay: Anti-proliferation assay (CellTiter Glo) on Ba/F3-parental; type: cell-based; settings: 72 h treatment, with 10 ng/ml IL-3, average with SD (n = 3, duplicate)
Experimental: as §1, §2

HT-29 (KRAS-Q61L) = assay: Anti-proliferation assay on HT-29; type: cell-based; settings: 72 h treatment, average with SD (n = 3, duplicate)
Experimental: as §1, §2

[1] = system: MDA-MB-468 (KRAS, NRAS-wt); assay: Anti-proliferation assay on MDA-MB-468; type: cell-based; settings: 72 h treatment, average with SD (n = 3, duplicate)
Experimental: as §1, §2

DU-145 (KRAS-G12V) = assay: Anti-proliferation assay on DU-145; type: cell-based; settings: 72 h treatment, average with SD (n = 3, duplicate)
Experimental: as §1, §2

AsPC-1 (KRAS-G12D) = assay: Anti-proliferation assay on AsPC-1; type: cell-based; settings: 72 h treatment, average with SD (n = 3, duplicate)
Experimental: as §1, §2

HCT-116 (KRAS-G13D) = assay: Anti-proliferation assay on HCT-116; type: cell-based; settings: 72 h treatment, average with SD (n = 3, duplicate)
Experimental: as §1, §2

SW480 (KRAS-G12V) = assay: Anti-proliferation assay on SW480; type: cell-based; settings: 72 h treatment, average with SD (n = 3, duplicate)
Experimental: as §1, §2

Ba/F3-NRAS-G12D cells = assay: Anti-proliferation assay (CellTiter Glo) on Ba/F3-NRAS-G12D; type: cell-based; settings: 72 h treatment, average with SD (n = 3, duplicate)
Experimental: as §1, §2

SMILES	GI50 (H358 (KRAS-G12C); Homo sapiens, NCI-H358) [µM]	GI50 (Ba/F3-NRAS-G12V cells; Mus musculus, BaF3) [µM]	GI50 (MDA-MB-231 (KRAS-G13D); Homo sapiens, MDA-MB-231) [µM]	GI50 (U937 (KRAS, NRAS-wt); Homo sapiens, U-937) [µM]	GI50 (OCI-AML3 (NRAS-Q61L); Homo sapiens, OCI-AML-3) [µM]	GI50 (Ba/F3-parental cells; Mus musculus, BaF3) [µM]	GI50 (HT-29 (KRAS-Q61L); Homo sapiens, HT-29) [µM]	GI50 ([1]; Homo sapiens, MDA-MB-468) [µM]	GI50 (DU-145 (KRAS-G12V); Homo sapiens, DU-145) [µM]	GI50 (AsPC-1 (KRAS-G12D); Homo sapiens, ASPC1) [µM]	GI50 (HCT-116 (KRAS-G13D); Homo sapiens, HCT-116) [µM]	GI50 (SW480 (KRAS-G12V); Homo sapiens, SW480) [µM]	GI50 (Ba/F3-NRAS-G12D cells; Mus musculus, BaF3) [µM]	other results
Cc1ccc(NC(=O)c2cccc(C(F)(F)F)c2)cc1N1Cc2cnc(NCCCN3CCOCC3)nc2N(C)C1=O [Compound 5, N-(4-Methyl-3-(1-methyl-7-((3-morpholinopropyl)amino)-2-oxo-1,4-dihydropyrimido[4,5-d]pyrimidin-3(2H)-yl)phenyl)-3-(trifluoromethyl)benzamide]	5.14 ± 0.368	0.351 ± 0.034	1.11 ± 0.127	4.73 ± 0.488	0.538 ± 0.162	5.73 ± 0.148	3.12 ± 0.46	> 50	1.88 ± 0.125	4.17 ± 2.17	2.54 ± 1.81	6.45 ± 0.264	0.457 ± 0.141	
Cc1ccc(NC(=O)c2cccc(C(F)(F)F)c2)cc1N1Cc2cnc(Nc3cnn(C)c3)nc2N(C)C1=O [Compound 10, N-(4-Methyl-3-(1-methyl-7-((1-methyl-1H-pyrazol-4-yl)amino)-2-oxo-1,4-dihydropyrimido[4,5-d]pyrimidin-3(2H)-yl)phenyl)-3-(trifluoromethyl)benzamide]	0.13 ± 0.009	0.28 ± 0.079	0.05 ± 0.012	2.7 ± 0.668	0.059 ± 0.007	0.63 ± 0.104	0.366 ± 0.152	> 50	0.051 ± 0.046	0.105 ± 0.034	0.068 ± 0.028	0.275 ± 0.029	0.193 ± 0.007	
Cc1ccc(NC(=O)c2cccc(C(F)(F)F)c2)cc1N1Cc2cnc(Nc3ccn(C)n3)nc2N(C)C1=O [Compound 11, N-(4-Methyl-3-(1-methyl-7-((1-methyl-1H-pyrazol-3-yl)amino)-2-oxo-1,4-dihydropyrimido[4,5-d]pyrimidin-3(2H)-yl)phenyl)-3-(trifluoromethyl)benzamid]	0.24 ± 0.042	0.259 ± 0.126	0.108 ± 0.026	7 ± 1.12	0.103 ± 0.001	1.16 ± 0.33	0.355 ± 0.054	> 50	0.089 ± 0.047	0.318 ± 0.01	0.045 ± 0.016	0.286 ± 0.039	0.185 ± 0.015	
COc1cc(N2CCOCC2)ccc1Nc1ncc2c(n1)N(C)C(=O)N(c1cc(NC(=O)c3cccc(C(F)(F)F)c3)ccc1C)C2 [Compound 7, N-(3-(7-((2-Methoxy-4-morpholinophenyl)amino)-1-methyl-2-oxo-1,4-dihydropyrimido[4,5-d]pyrimidin-3(2H)-yl)-4-methylphenyl)-3-(trifluoromethyl)benzamide]	0.871 ± 0.141	0.429 ± 0.08	0.62 ± 0.153	17.4 ± 4.22	0.606 ± 0.068	3.78 ± 1.89	0.733 ± 0.001	> 50	0.388 ± 0.045	1.68 ± 0.589	0.48 ± 0.275	1.329 ± 0.005	0.588 ± 0.072	
COCCn1cc(Nc2ncc3c(n2)N(C)C(=O)N(c2cc(NC(=O)c4cccc(C(F)(F)F)c4)ccc2C)C3)cn1 [Compound 12, N-(3-(7-((1-(2-Methoxyethyl)-1H-pyrazol-4-yl)amino)-1-methyl-2-oxo-1,4-dihydropyrimido[4,5-d]pyrimidin-3(2H)-yl)-4-methylphenyl)-3-(trifluoromethyl)benzamide]	0.106 ± 0.012	0.216 ± 0.005	0.071 ± 0.018	0.934 ± 0.057	0.046 ± 0.016	1.16 ± 0.424	0.131 ± 0.004	> 50	0.034 ± 0.025	0.275 ± 0.047	0.066 ± 0.055	0.532 ± 0.15	0.122 ± 0.001	
Cc1ccc(NC(=O)c2cccc(C(F)(F)F)c2)cc1N1Cc2cnc(Nc3ccc(N4CCC(O)CC4)cc3)nc2N(C)C1=O [Compound 2, N-(3-(7-((4-(4-Hydroxypiperidin-1-yl)phenyl)amino)-1-methyl-2-oxo-1,4-dihydropyrimido[4,5-d]pyrimidin-3(2H)-yl)-4-methylphenyl)-3-(trifluoromethyl)benzamide]	0.201 ± 0.023	0.181 ± 0.042	0.09	1.69 ± 0.624	0.101 ± 0.022	0.827 ± 0.142	0.143 ± 0.01	20.2 ± 8.77	0.04 ± 0.02	0.257 ± 0.129	0.015 ± 0.009	0.293 ± 0.05	0.116 ± 0.037	
CCN1CCC(n2cc(Nc3ncc4c(n3)N(C)C(=O)N(c3cc(NC(=O)c5cccc(C(F)(F)F)c5)ccc3C)C4)cn2)CC1 [Compound 13, N-(3-(7-((1-(1-Ethylpiperidin-4-yl)-1H-pyrazol-4-yl)amino)-1-methyl-2-oxo-1,4-dihydropyrimido[4,5-d]pyrimidin-3(2H)-yl)-4-methylphenyl)-3-(trifluoromethyl)benzamide]	0.147 ± 0.031	0.13 ± 0.028	0.055 ± 0.02	0.69 ± 0.035	0.036 ± 0.007	0.889 ± 0.061	0.164 ± 0.002	16.2 ± 6.02	0.076 ± 0.026	0.186 ± 0.022	0.077 ± 0.027	0.269 ± 0.061	0.114 ± 0.018	
Cc1ccc(Nc2ncc3c(n2)N(C)C(=O)N(c2cc(NC(=O)c4cccc(C(F)(F)F)c4)ccc2C)C3)cn1 [GNF-7, reference compound]														GI50 (H358 (KRAS-G12C)): 0.922 ± 0.093 µM; GI50 (Ba/F3-NRAS-G12V cells): 0.396 ± 0.036 µM; GI50 (MDA-MB-231 (KRAS-G13D)): 0.296 ± 0.039 µM; GI50 (U937 (KRAS, NRAS-wt)): 4.78 ± 0.926 µM; GI50 (OCI-AML3 (NRAS-Q61L)): 0.229 ± 0.01 µM; GI50 (Ba/F3-parental cells): 0.923 ± 0.059 µM; GI50 (HT-29 (KRAS-Q61L)): 0.938 ± 0.034 µM; GI50 [1]: > 50 µM; GI50 (DU-145 (KRAS-G12V)): 0.288 ± 0.057 µM; GI50 (AsPC-1 (KRAS-G12D)): 0.448 ± 0.027 µM; GI50 (HCT-116 (KRAS-G13D)): 0.169 ± 0.061 µM; GI50 (SW480 (KRAS-G12V)): 0.76 ± 0.063 µM; GI50 (Ba/F3-NRAS-G12D cells): 0.25 ± 0.026 µM
Cc1ccc(NC(=O)c2cccc(C(F)(F)F)c2)cc1N1Cc2cnc(Nc3ccc(N4CCCCC4)cc3)nc2N(C)C1=O [Compound 1, N-(4-Methyl-3-(1-methyl-2-oxo-7-((4-(piperidin-1-yl)phenyl)amino)-1,4-dihydropyrimido[4,5-d]pyrimidin-3(2H)-yl)phenyl)-3-(trifluoromethyl)benzamide]	1.38 ± 0.096		1.11 ± 0.29	> 50	0.611 ± 0.065	> 50	1.31 ± 0.054	> 50	1.04 ± 0.4	2.02 ± 0.056	1.24 ± 0.554	4.51 ± 0.873	0.586 ± 0.091	
Cc1ccc(Nc2ncc3c(n2)N(C)C(=O)N(c2cc(NC(=O)c4cccc(C(F)(F)F)c4)ccc2C)C3)c(C)n1 [Compound 6, N-(3-(7-((2,6-Dimethylpyridin-3-yl)amino)-1-methyl-2-oxo-1,4-dihydropyrimido[4,5-d]pyrimidin-3(2H)-yl)-4-methylphenyl)-3-(trifluoromethyl)benzamide]	2.06 ± 1.13	0.428 ± 0.161	0.646 ± 0.068	2.87 ± 0.142	0.374 ± 0.024	1.47 ± 0.317	3.25 ± 0.176	> 50	1.17 ± 0.124	3.17 ± 0.244	1.53 ± 0.39	2.05 ± 0.051	0.569 ± 0.028	
CCN1CCN(c2ccc(Nc3ncc4c(n3)N(C)C(=O)N(c3cc(NC(=O)c5cccc(C(F)(F)F)c5)ccc3C)C4)c(C(F)(F)F)c2)CC1 [Compound 8, N-(3-(7-((4-(4-Ethylpiperazin-1-yl)-2-(trifluoromethyl)phenyl)amino)-1-methyl-2-oxo-1,4-dihydropyrimido[4,5-d]pyrimidin-3(2H)-yl)-4-methylphenyl)-3-(trifluoromethyl)benzamide]	8.98 ± 0.246	0.944 ± 0.112	2.79 ± 0.658	6.06 ± 2.18	0.687 ± 0.154	3.92 ± 0.722	2.15 ± 0.109	> 50	3.99 ± 0.566	6.65 ± 0.102	5.81 ± 0.965	5.79 ± 0.657	1.255 ± 0.006	
